We go through 31 compounds from US20030162777A1, “Novel N-acylated heterocycles” (Recordati S.A., priority 2001, published 2003).

This assay deals with T1, human 5HT1A-serotonergic receptor (Homo sapiens, UniProt P08908).
T1 construct: expressed in transfected cells; host or cells: HeLa (human cell line), stably transfected; cell membranes used
T1 sequence (P08908 1-422): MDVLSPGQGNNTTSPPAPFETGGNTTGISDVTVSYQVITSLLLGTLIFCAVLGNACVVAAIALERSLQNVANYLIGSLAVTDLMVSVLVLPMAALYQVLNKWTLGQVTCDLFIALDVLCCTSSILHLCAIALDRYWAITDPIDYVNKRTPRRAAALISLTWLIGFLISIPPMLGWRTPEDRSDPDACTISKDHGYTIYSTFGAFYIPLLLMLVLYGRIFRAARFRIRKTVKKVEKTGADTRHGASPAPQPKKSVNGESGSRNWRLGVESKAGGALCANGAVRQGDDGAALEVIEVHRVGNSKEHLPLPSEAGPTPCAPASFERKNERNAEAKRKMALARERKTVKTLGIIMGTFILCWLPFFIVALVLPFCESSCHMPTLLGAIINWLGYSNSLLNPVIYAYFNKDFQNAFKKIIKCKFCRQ
Briefly: Radioligand binding to recombinant 5-HT1A receptors. The settings on record: [3H]8-OH-DPAT 1 nM, membranes of HeLa cells with human 5-HT1A receptor; Ki from IC50 by Cheng & Prusoff; read-out: Binding affinity for 5HT1A receptors, Ki. The essentials: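 Displacement of 1 nM [3H]8-OH-DPAT (30 min, 30 °C, Tris-HCl pH 7.4 with MgCl2 and pargyline) from recombinant human 5-HT1A in transfected HeLa membranes, stopped by filtration. Specific binding defined against 10 μM 5-HT; IC50 by nonlinear fitting, then Ki by Cheng–Prusoff.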

Each structure is given as a SMILES string.

Usually Ki stands for a dissociation constant, usually derived from enzyme kinetics or from competition with a known ligand. Turning to `O=C(C1CCCCC1)N1c2ccccc2CCC1CN1CCN(c2cc(C(F)(F)F)nc3ccccc23)CC1` (stereo not shown) [Example 72A89, 1-(1-Cyclohexanecarbonyl-1,2,3,4-tetrahydroquinolin-2-ylmethyl)-4-(2-trifluoromethylquinolin-4-yl)piperazine], the Ki amounted to 34.7 nM.
To `O=C(C1CCCCC1)N1c2ccccc2CCC1CN1CCN(c2ccccn2)CC1` (stereo not shown) [Example 72A93, 1-(1-Cyclohexanecarbonyl-1,2,3,4-tetrahydroquinolin-2-ylmethyl)-4-(2-pyridyl)piperazine] belongs 7.8 nM.
The figure for `O=C(C1CCCCC1)N1c2ccccc2CCC1CN1CCN(c2ccnc3ccccc23)CC1` (stereo not shown) [Example 72A94, 1-(1-Cyclohexanecarbonyl-1,2,3,4-tetrahydroquinolin-2-ylmethyl)-4-(4-quinolyl)piperazine] is 10 nM; for `COc1cc(F)ccc1N1CCN(CC2CCc3cc(C)ccc3N2C(=O)CC2CCCCC2)CC1` (stereo not shown) [Example 73A6, 1-(1-Cyclohexylacetyl-1,2,3,4-tetrahydroquinolin-6-methyl-2-ylmethyl)-4-(4-fluoro-2-methoxyphenyl)piperazine] it is 18.1 nM.
The figure for `COc1cc(F)ccc1N1CCN(CC2CCc3cc(C)ccc3N2C(=O)C2CCCCCC2)CC1` (stereo not shown) [Example 73A13, 1-(1-Cycloheptanecarbonyl-1,2,3,4-tetrahydroquinolin-6-methyl-2-ylmethyl)-4-(4-fluoro-2-methoxyphenyl)piperazine] is 8.1 nM; for `COc1cc(F)ccc1N1CCN(CC2CCc3ccccc3N2C(=O)CC(C)(C)C)CC1` (stereo not shown) [Example 74A1, 1-(3,3-Dimethylbutanoyl-1,2,3,4-tetrahydroquinolin-2-ylmethyl)-4-(4-fluoro-2-methoxyhenyl)piperazine] it is 2 nM; for `COc1ccc(C(=O)N2c3ccccc3CCC2CN2CCN(c3ccc(F)cc3OC)CC2)cc1` (stereo not shown) [Example 74A5, 1-(4-Fluoro-2-methoxyphenyl)-4-[1-(4-methoxybenzoyl)-1,2,3,4-tetrahydroquinolin-2-ylmethy]piperazine] it is 2 nM.
For `COc1cc(F)ccc1N1CCN(CC2CCc3ccccc3N2C(=O)Cc2cccs2)CC1` (stereo not shown) [Example 74A8, 1-(4-Fluoro-2-methoxyphenyl)-4-[1-(2-thienylacetyl)-1,2,3,4-tetrahydroquinolin-2-ylmethyl]piperazine], the Ki was found to be 5.9 nM.
The figure for `COc1cc(F)ccc1N1CCN(CC2CCc3ccccc3N2C(=O)Cc2ccsc2)CC1` (stereo not shown) [Example 74A9, 1-(4-Fluoro-2-methoxyphenyl)-4-[1-(3-thienylacetyl)-1,2,3,4-tetrahydroquinolin-2-ylmethyl]piperazine] is 38.3 nM.
On to `COc1cc(F)ccc1N1CCN(CC2CCc3ccccc3N2C(=O)CC(C)C)CC1` (stereo not shown) [Example 74A, 1-(4-Fluoro-2-methoxyphenyl)-4-[1-(3-methylbutanoyl)-1,2,3,4-tetrahydroquinolin-2-ylmethyl]piperazine], for which the Ki stood at 17.6 nM.
The figure for `O=C(CC1CC1)N1c2ccccc2CCC1CN1CCN(c2nccc3ccccc23)CC1` (stereo not shown) [Example 75A2, 1-[1-(2-Cyclopropylacetyl)-1,2,3,4-tetrahydroquinolin-2-ylmethyl]-4-(1-isoquinolinyl)piperazine] is 10.1 nM.
The figure for `O=C(c1ccc[nH]1)N1c2ccccc2CCC1CN1CCN(c2nccc3ccccc23)CC1` (stereo not shown) [Example 75A3, 1-(1-Isoquinolinyl)-4-[1-(2-pyrrolylcarbonyl)-1,2,3,4-tetrahydroquinolin-2-ylmethyl]piperazine] is 14 nM.
The figure for `O=C(c1ccco1)N1c2ccccc2CCC1CN1CCN(c2nccc3ccccc23)CC1` (stereo not shown) [Example 75A4, 1-[1-(2-Furancarbonyl)-1,2,3,4-tetrahydroquinolin-2-ylmethyl]-4-(1-isoquinolinyl)piperazine] is 14.6 nM.
Take `COc1ccc(C(=O)N2c3ccccc3CCC2CN2CCN(c3nccc4ccccc34)CC2)cc1` (stereo not shown) [Example 75A5, 1-(1-Isoquinolinyl)-4-[1-(4-methoxybenzoyl)-1,2,3,4-tetrahydroquinolin-2-ylmethyl]piperazine]: the Ki stood at 2.6 nM.
The figure for `N#Cc1ccc(C(=O)N2c3ccccc3CCC2CN2CCN(c3nccc4ccccc34)CC2)cc1` (stereo not shown) [Example 75A6, 1-[1-(4-Cyanobenzoyl)-1,2,3,4-tetrahydroquinolin-2-ylmethyl]-4-(1-isoquinolinyl)piperazine] is 4.3 nM; for `CC(=O)N1CCC(C(=O)N2c3ccccc3CCC2CN2CCN(c3nccc4ccccc34)CC2)CC1` (stereo not shown) [Example 75A7, 1-[1-(1-Acetyl-4-piperidinecarbonyl)-1,2,3,4-tetrahydroquinolin-2-ylmethyl]-4-(1-isoquinolinyl)piperazine] it is 5.4 nM; for `O=C(Cc1cccs1)N1c2ccccc2CCC1CN1CCN(c2nccc3ccccc23)CC1` (stereo not shown) [Example 75A8, 1-(1-Isoquinolinyl)-4-[1-(2-thienyacetyl)-1,2,3,4-tetrahydroquinolin-2-ylmethyl]piperazine] it is 17 nM.
The figure for `O=C(Cc1ccsc1)N1c2ccccc2CCC1CN1CCN(c2nccc3ccccc23)CC1` (stereo not shown) [Example 75A9, 1-(1-Isoquinolinyl)-4-[1-(3-thienyacetyl)-1,2,3,4-tetrahydroquinolin-2-ylmethyl]piperazine] is 16.1 nM.
For the compound `O=C(C1CCC1)N1c2ccccc2CCC1CN1CCN(c2nccc3ccccc23)CC1` (stereo not shown) [Example 75A10, 1-(1-Cyclobutanecarbonyl-1,2,3,4-tetrahydroquinolin-2-ylmethyl)-4-(1-isoquinolinyl)piperazine], the Ki was determined as 26.4 nM.
To `O=C(CCCOc1ccccc1)N1c2ccccc2CCC1CN1CCN(c2nccc3ccccc23)CC1` (stereo not shown) [Example 75A11, 1-(1-Isoquinolinyl)-4-[1-(4-phenoxybutanoyl)-1,2,3,4-tetrahydroquinolin-2-ylmethyl]piperazine] belongs 17.1 nM.
To `CC(C)(C)NC(=O)N1c2ccccc2CCC1CN1CCN(c2nccc3ccccc23)CC1` (stereo not shown) [Example 75A15, 1-(1-Isoquinolinyl)-4-[1-(1,1-Dimethyethylaminocarbonyl)-1,2,3,4-tetrahydroquinolin-2-ylmethyl]piperazine] belongs 27.7 nM; to `CC(C)CC(=O)N1c2ccccc2CCC1CN1CCN(c2nccc3ccccc23)CC1` (stereo not shown) [Example 75A, 1-(1-Isoquinolinyl)-4-[1-(3-methylbutanoyl)-1,2,3,4-tetrahydroquinolin-2-ylmethyl]piperazine], 3.2 nM; to `O=C(CC1CC1)N1c2ccccc2CCC1CN1CCN(c2cccc3c2OCCO3)CC1` (stereo not shown) [Example 76A1, 4-[1-(2-Cyclopropylacetyl)-1,2,3,4-tetrahydroquinolin-2-ylmethyl]-1-(2,3-dihydrobenzo[1,4]dioxin-5-yl)piperazine], 5.4 nM.
To `O=C(c1ccc[nH]1)N1c2ccccc2CCC1CN1CCN(c2cccc3c2OCCO3)CC1` (stereo not shown) [Example 76A2, 1-(2,3-Dihydrobenzo[1,4]dioxin-5-yl)-4-[1-(2-pyrrolylcarbonyl)-1,2,3,4-tetrahydroquinolin-2-ylmethyl]piperazine] belongs 5.1 nM; to `O=C(c1ccco1)N1c2ccccc2CCC1CN1CCN(c2cccc3c2OCCO3)CC1` (stereo not shown) [Example 76A3, 1-(2,3-Dihydrobenzo[1,4]dioxin-5-yl)-4-[1-(2-furanecarbonyl)-1,2,3,4-tetrahydroquinolin-2-ylmethyl]piperazine], 5 nM.
In the case of `COc1ccc(C(=O)N2c3ccccc3CCC2CN2CCN(c3cccc4c3OCCO4)CC2)cc1` (stereo not shown) [Example 76A4, 1-(2,3-Dihydrobenzo[1,4]dioxin-5-yl)-4-[1-(4-methoxybenzoyl)-1,2,3,4-tetrahydroquinolin-2-ylmethyl]piperazine], the inhibitory constant (Ki) turned out to be 3.9 nM.
To `N#Cc1ccc(C(=O)N2c3ccccc3CCC2CN2CCN(c3cccc4c3OCCO4)CC2)cc1` (stereo not shown) [Example 76A5, 1-[1-(4-Cyanobenzoyl)-1,2,3,4-tetrahydroquinolin-2-ylmethyl]-4-(2,3-dihydrobenzo[1,4]dioxin-5-yl)piperazine] belongs 12.4 nM; to `O=C(Cc1cccs1)N1c2ccccc2CCC1CN1CCN(c2cccc3c2OCCO3)CC1` (stereo not shown) [Example 76A6, 1-(2,3-Dihydrobenzo[1,4]dioxin-5-yl)-4-[1-[2-(2-thienyl)acetyl]-1,2,3,4-tetrahydroquinolin-2-ylmethyl]piperazine], 5.5 nM; to `O=C(Cc1ccsc1)N1c2ccccc2CCC1CN1CCN(c2cccc3c2OCCO3)CC1` (stereo not shown) [Example 76A7, 1-(2,3-Dihydrobenzo[1,4]dioxin-5-yl)-4-[1-[2-(3-thienyl)acetyl]-1,2,3,4-tetrahydroquinolin-2-ylmethyl]piperazine], 8.5 nM.
The figure for `O=C(C1CCC1)N1c2ccccc2CCC1CN1CCN(c2cccc3c2OCCO3)CC1` (stereo not shown) [Example 76A8] is 19.2 nM; for `O=S(=O)(c1ccccc1)N1c2ccccc2CCC1CN1CCN(c2cccc3c2OCCO3)CC1` (stereo not shown) [Example 76A10, 1-(1-Benzenesulphonyl-1,2,3,4-tetrahydroquinolin-2-ylmethyl)-4-(2,3-dihydrobenzo[1,4]dioxin-5-yl)piperazine] it is 21.5 nM.
